How the values were obtained:
bulrush [1] = test: Test Example 1: herbicidal efficacy on rice paddy weeds pre-emergence; type: in vivo, Scirpus juncoides; conditions: 21 days
false pimpernel [2] = test: as above; type: in vivo, Lindernia pyxidaria; conditions: 21 days
barnyard glass = test: Test Example 2: herbicidal efficacy on rice paddy weeds post-emergence; type: in vivo, Echinochloa crus-galli; conditions: post-emergence, one leaf stage, 21 days after treatment
Procedure, shortened: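 Plastic pots of 75 cm^2 were filled with clay loam soil and sown with barnyard glass and bulrush seeds, then topped with 75 cm^3 soil containing false pimpernel seeds. The pots were flooded to 5 cm water depth and held in a hot house. Twenty-one days after treatment, herbicidal efficacy was graded against an untreated control.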

bulrush [3] = test: as above; type: in vivo, Scirpus juncoides; conditions: post-emergence, one leaf stage, 21 days after treatment
false pimpernel [4] = test: as above; type: in vivo, Lindernia pyxidaria; conditions: post-emergence, one leaf stage, 21 days after treatment
[5] = test system: paddy rice plant (cultivar: Nihonbare); test: Test Example 3: phytotoxicity test for transplanted paddy rice plant; type: in vivo; conditions: transplanted rice, 21 days after treatment
Procedure, shortened: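 Clay loam soil was placed in a 75 cm^2 plastic pot and flooded to a water depth of 5 cm. Two Nihonbare paddy rice plants at the two-leaf stage were transplanted 1 cm deep and grown in a hot house. After treatment, pots stayed in the hot house for 21 days, and phytotoxicity was then graded against an untreated control.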

bulrush [6] = test: Test Example 4: low dosage test for rice paddy weeds; type: in vivo, Scirpus juncoides; conditions: 300 g/ha as an active ingredient; plants treated at the one leaf stage; 21 days after treatment; vs untreated control
Procedure, shortened: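 Bulrush sown in clay loam pots, flooded to 5 cm water in a hot house, treated at the one-leaf stage with formulated compound at 300 g/ha. Efficacy scored 0–4 against untreated control 21 days after treatment (4 = 90–100%, 0 = 0% inhibition).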

[7] = test system: transplanted paddy rice plant and Bulrush; test: Test Example 5: selectivity between transplanted paddy rice plant and weeds; type: in vivo; conditions: (highest dosage with no phytotoxicity to paddy rice)/(lowest dosage with effective level 4 on Bulrush); rice 3000-100 g/ha, Bulrush 300-10 g/ha; 21 days
Procedure, shortened: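 Transplanted paddy rice was treated at 3000, 1000, 300 and 100 g/ha active ingredient for phytotoxicity, and post-emergence bulrush at 300, 100, 30 and 10 g/ha. Plants were kept in a hothouse for 21 days. Growth inhibition versus untreated control was scored 0–4 (0%, 1–39%, 40–69%, 70–89%, 90–100%).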

[8] = dosage 1000 g/ha, treated 5 days after transplantation

`CCCCCCOC(=O)N(c1ccccc1CN1CC(C)(C)OC1=O)S(=O)(=O)C(F)(F)F` [1-93] was tested, and the “Bulrush pre (herbicidal efficacy grade)” value (bulrush [1]; dosage 1000 g/ha) was 4 (90%-100% of herbicidal efficacy or phytotoxicity), the “False pimpernel pre (herbicidal efficacy grade)” value (shortened to “False pimpernel pre”) (false pimpernel [2]; dosage 1000 g/ha) was 4 (90%-100% of herbicidal efficacy or phytotoxicity) and the “Burnyard grass post (herbicidal efficacy grade)” value (from here on “Burnyard grass post”) (barnyard glass; dosage 1000 g/ha) was 4 (90%-100% of herbicidal efficacy or phytotoxicity). The “Bulrush post (herbicidal efficacy grade)” value (bulrush [3]; dosage 1000 g/ha) was 4 (90%-100% of herbicidal efficacy or phytotoxicity), the “False pimpernel post (herbicidal efficacy grade)” value (“False pimpernel post” for short) (false pimpernel [4]; dosage 1000 g/ha) was 4 (90%-100% of herbicidal efficacy or phytotoxicity) and the “Phytotoxicity to paddy rice” value [5, 8] was 1 (1%-39% of herbicidal efficacy or phytotoxicity). For the same molecule, the “Herbicide effect to Bulrush” value (bulrush [6]) was 4 (90%-100% of herbicidal efficacy or phytotoxicity) and the “Selective Index” value [7] was “≧30”.
In the case of `CCCCCCCOC(=O)N(c1ccccc1CN1CC(C)(C)OC1=O)S(=O)(=O)C(F)(F)F` [1-94], the “Bulrush pre (herbicidal efficacy grade)” value (bulrush [1]; dosage 1000 g/ha) is reported as 4 (90%-100% of herbicidal efficacy or phytotoxicity), the “False pimpernel pre” value (false pimpernel [2]; dosage 1000 g/ha) is reported as 4 (90%-100% of herbicidal efficacy or phytotoxicity) and the “Burnyard grass post” value (barnyard glass; dosage 1000 g/ha) is reported as 4 (90%-100% of herbicidal efficacy or phytotoxicity). The “Bulrush post (herbicidal efficacy grade)” value (bulrush [3]; dosage 1000 g/ha) was 4 (90%-100% of herbicidal efficacy or phytotoxicity), the “False pimpernel post” value (false pimpernel [4]; dosage 1000 g/ha) was 4 (90%-100% of herbicidal efficacy or phytotoxicity) and the “Phytotoxicity to paddy rice” value [5, 8] was 1 (1%-39% of herbicidal efficacy or phytotoxicity). For the same molecule, the “Herbicide effect to Bulrush” value (bulrush [6]) was 4 (90%-100% of herbicidal efficacy or phytotoxicity) and the “Selective Index” value [7] was “≧30”.
With `CC(C)COC(=O)N(c1ccccc1CN1C(=O)OC(C)(C)C1C)S(=O)(=O)C(F)(F)F` (centres unmarked) [1-95] the “Bulrush pre (herbicidal efficacy grade)” value (bulrush [1]; dosage 1000 g/ha) was 4 (90%-100% of herbicidal efficacy or phytotoxicity), the “False pimpernel pre” value (false pimpernel [2]; dosage 1000 g/ha) was 4 (90%-100% of herbicidal efficacy or phytotoxicity) and the “Burnyard grass post” value (barnyard glass; dosage 1000 g/ha) was 4 (90%-100% of herbicidal efficacy or phytotoxicity). For the same molecule, the “Bulrush post (herbicidal efficacy grade)” value (bulrush [3]; dosage 1000 g/ha) was 4 (90%-100% of herbicidal efficacy or phytotoxicity), the “False pimpernel post” value (false pimpernel [4]; dosage 1000 g/ha) was 4 (90%-100% of herbicidal efficacy or phytotoxicity) and the “Phytotoxicity to paddy rice” value [5, 8] was 3 (70%-89% of herbicidal efficacy or phytotoxicity). For the same molecule, the “Herbicide effect to Bulrush” value (bulrush [6]) was 4 (90%-100% of herbicidal efficacy or phytotoxicity) and the “Selective Index” value [7] was 30.
With `CCOC(=O)N(c1ccccc1CN1CC(CC)(CC)OC1=O)S(=O)(=O)C(F)(F)F` [1-97] the “Bulrush pre (herbicidal efficacy grade)” value (bulrush [1]; dosage 1000 g/ha) was 4 (90%-100% of herbicidal efficacy or phytotoxicity), the “False pimpernel pre” value (false pimpernel [2]; dosage 1000 g/ha) was 4 (90%-100% of herbicidal efficacy or phytotoxicity) and the “Burnyard grass post” value (barnyard glass; dosage 1000 g/ha) was 4 (90%-100% of herbicidal efficacy or phytotoxicity). The “Bulrush post (herbicidal efficacy grade)” value (bulrush [3]; dosage 1000 g/ha) was 4 (90%-100% of herbicidal efficacy or phytotoxicity), the “False pimpernel post” value (false pimpernel [4]; dosage 1000 g/ha) was 4 (90%-100% of herbicidal efficacy or phytotoxicity) and the “Phytotoxicity to paddy rice” value [5, 8] was 1 (1%-39% of herbicidal efficacy or phytotoxicity). For the same molecule, the “Herbicide effect to Bulrush” value (bulrush [6]) was 4 (90%-100% of herbicidal efficacy or phytotoxicity) and the “Selective Index” value [7] was 30.
`CCCOC(=O)N(c1ccccc1CN1CC(CC)(CC)OC1=O)S(=O)(=O)C(F)(F)F` [1-98] was tested, and the “Bulrush pre (herbicidal efficacy grade)” value (bulrush [1]; dosage 1000 g/ha) was 4 (90%-100% of herbicidal efficacy or phytotoxicity), the “False pimpernel pre” value (false pimpernel [2]; dosage 1000 g/ha) was 4 (90%-100% of herbicidal efficacy or phytotoxicity) and the “Burnyard grass post” value (barnyard glass; dosage 1000 g/ha) was 4 (90%-100% of herbicidal efficacy or phytotoxicity). For the same molecule, the “Bulrush post (herbicidal efficacy grade)” value (bulrush [3]; dosage 1000 g/ha) was 4 (90%-100% of herbicidal efficacy or phytotoxicity), the “False pimpernel post” value (false pimpernel [4]; dosage 1000 g/ha) was 4 (90%-100% of herbicidal efficacy or phytotoxicity) and the “Phytotoxicity to paddy rice” value [5, 8] was 1 (1%-39% of herbicidal efficacy or phytotoxicity). For the same molecule, the “Herbicide effect to Bulrush” value (bulrush [6]) was 4 (90%-100% of herbicidal efficacy or phytotoxicity) and the “Selective Index” value [7] was 10.
`CCCCOC(=O)N(c1ccccc1CN1CC(CC)(CC)OC1=O)S(=O)(=O)C(F)(F)F` [1-99] was tested, and the “Bulrush pre (herbicidal efficacy grade)” value (bulrush [1]; dosage 1000 g/ha) was 4 (90%-100% of herbicidal efficacy or phytotoxicity), the “False pimpernel pre” value (false pimpernel [2]; dosage 1000 g/ha) was 4 (90%-100% of herbicidal efficacy or phytotoxicity) and the “Burnyard grass post” value (barnyard glass; dosage 1000 g/ha) was 4 (90%-100% of herbicidal efficacy or phytotoxicity). The “Bulrush post (herbicidal efficacy grade)” value (bulrush [3]; dosage 1000 g/ha) was 4 (90%-100% of herbicidal efficacy or phytotoxicity), the “False pimpernel post” value (false pimpernel [4]; dosage 1000 g/ha) was 4 (90%-100% of herbicidal efficacy or phytotoxicity) and the “Phytotoxicity to paddy rice” value [5, 8] was 1 (1%-39% of herbicidal efficacy or phytotoxicity). For the same molecule, the “Herbicide effect to Bulrush” value (bulrush [6]) was 4 (90%-100% of herbicidal efficacy or phytotoxicity) and the “Selective Index” value [7] was 10.
With `CCC1(CC)CN(Cc2ccccc2N(C(=O)OCC(C)(C)C)S(=O)(=O)C(F)(F)F)C(=O)O1` [1-100] the “Bulrush pre (herbicidal efficacy grade)” value (bulrush [1]; dosage 1000 g/ha) was 4 (90%-100% of herbicidal efficacy or phytotoxicity), the “False pimpernel pre” value (false pimpernel [2]; dosage 1000 g/ha) was 4 (90%-100% of herbicidal efficacy or phytotoxicity) and the “Burnyard grass post” value (barnyard glass; dosage 1000 g/ha) was 4 (90%-100% of herbicidal efficacy or phytotoxicity). The “Bulrush post (herbicidal efficacy grade)” value (bulrush [3]; dosage 1000 g/ha) was 4 (90%-100% of herbicidal efficacy or phytotoxicity), the “False pimpernel post” value (false pimpernel [4]; dosage 1000 g/ha) was 4 (90%-100% of herbicidal efficacy or phytotoxicity) and the “Phytotoxicity to paddy rice” value [5, 8] was 1 (1%-39% of herbicidal efficacy or phytotoxicity). For the same molecule, the “Herbicide effect to Bulrush” value (bulrush [6]) was 4 (90%-100% of herbicidal efficacy or phytotoxicity) and the “Selective Index” value [7] was 10.
In the case of `CCCCC1(C)CN(Cc2ccccc2N(C(=O)OCC)S(=O)(=O)C(F)(F)F)C(=O)O1` (centres unmarked) [1-129], the “Bulrush pre (herbicidal efficacy grade)” value (bulrush [1]; dosage 100 g/ha) is reported as 2 (40%-69% of herbicidal efficacy or phytotoxicity), the “False pimpernel pre” value (false pimpernel [2]; dosage 100 g/ha) is reported as 4 (90%-100% of herbicidal efficacy or phytotoxicity) and the “Burnyard grass post” value (barnyard glass; dosage 100 g/ha) is reported as 3 (70%-89% of herbicidal efficacy or phytotoxicity). The “Bulrush post (herbicidal efficacy grade)” value (bulrush [3]; dosage 100 g/ha) was 4 (90%-100% of herbicidal efficacy or phytotoxicity), the “False pimpernel post” value (false pimpernel [4]; dosage 100 g/ha) was 3 (70%-89% of herbicidal efficacy or phytotoxicity) and the “Phytotoxicity to paddy rice” value ([5]; dosage 100 g/ha as printed in the table line) was 1 (1%-39% of herbicidal efficacy or phytotoxicity). For the same molecule, the “Herbicide effect to Bulrush” value (bulrush [6]) was 4 (90%-100% of herbicidal efficacy or phytotoxicity) and the “Selective Index” value [7] was 10.
With `CCCC1(CC)CN(Cc2ccccc2NS(=O)(=O)C(F)(F)F)C(=O)O1` (centres unmarked) [1-130] the “Bulrush pre (herbicidal efficacy grade)” value (bulrush [1]; dosage 1000 g/ha) was 4 (90%-100% of herbicidal efficacy or phytotoxicity), the “False pimpernel pre” value (false pimpernel [2]; dosage 1000 g/ha) was 4 (90%-100% of herbicidal efficacy or phytotoxicity) and the “Burnyard grass post” value (barnyard glass; dosage 1000 g/ha) was 4 (90%-100% of herbicidal efficacy or phytotoxicity). The “Bulrush post (herbicidal efficacy grade)” value (bulrush [3]; dosage 1000 g/ha) was 4 (90%-100% of herbicidal efficacy or phytotoxicity), the “False pimpernel post” value (false pimpernel [4]; dosage 1000 g/ha) was 4 (90%-100% of herbicidal efficacy or phytotoxicity) and the “Phytotoxicity to paddy rice” value [5, 8] was 1 (1%-39% of herbicidal efficacy or phytotoxicity). For the same molecule, the “Herbicide effect to Bulrush” value (bulrush [6]) was 4 (90%-100% of herbicidal efficacy or phytotoxicity) and the “Selective Index” value [7] was 10.
For `CCC1(C(C)C)CN(Cc2ccccc2NS(=O)(=O)C(F)(F)F)C(=O)O1` (centres unmarked) [1-131], the “Bulrush pre (herbicidal efficacy grade)” value (bulrush [1]; dosage 1000 g/ha) was 4 (90%-100% of herbicidal efficacy or phytotoxicity), the “False pimpernel pre” value (false pimpernel [2]; dosage 1000 g/ha) was 4 (90%-100% of herbicidal efficacy or phytotoxicity) and the “Burnyard grass post” value (barnyard glass; dosage 1000 g/ha) was 4 (90%-100% of herbicidal efficacy or phytotoxicity). For the same molecule, the “Bulrush post (herbicidal efficacy grade)” value (bulrush [3]; dosage 1000 g/ha) was 4 (90%-100% of herbicidal efficacy or phytotoxicity), the “False pimpernel post” value (false pimpernel [4]; dosage 1000 g/ha) was 4 (90%-100% of herbicidal efficacy or phytotoxicity) and the “Phytotoxicity to paddy rice” value [5, 8] was 2 (40%-69% of herbicidal efficacy or phytotoxicity). For the same molecule, the “Herbicide effect to Bulrush” value (bulrush [6]) was 4 (90%-100% of herbicidal efficacy or phytotoxicity) and the “Selective Index” value [7] was 10.

Reference: patent publication US20080274892A1, “Novel Haloalkylsulfonanilide Derivative, Herbicide, and Method of Use Thereof” (priority 2005, published 2008)
